The text below walks through data of paper PMC5908784, “Extracellular loops 2 and 3 of the calcitonin receptor selectively modify agonist binding and efficacy” (Biochemical Pharmacology, 2018).

Where a chain is given by its changes, count along the chain named. Where no end group is shown, it is not given here.

Experiment in all cases: Homologous whole cell competition binding
Holding throughout (settings): homologous competition of 125I-sCT(8-32), whole cells, mean ± S.E.M., SEM

Assay [1] addresses T1, hCTR H296A (Homo sapiens, UniProt P30988, H296A).
T1 construct: c-Myc (N); expressed in transfected cells
T1 sequence (P30988 25-474 H296A): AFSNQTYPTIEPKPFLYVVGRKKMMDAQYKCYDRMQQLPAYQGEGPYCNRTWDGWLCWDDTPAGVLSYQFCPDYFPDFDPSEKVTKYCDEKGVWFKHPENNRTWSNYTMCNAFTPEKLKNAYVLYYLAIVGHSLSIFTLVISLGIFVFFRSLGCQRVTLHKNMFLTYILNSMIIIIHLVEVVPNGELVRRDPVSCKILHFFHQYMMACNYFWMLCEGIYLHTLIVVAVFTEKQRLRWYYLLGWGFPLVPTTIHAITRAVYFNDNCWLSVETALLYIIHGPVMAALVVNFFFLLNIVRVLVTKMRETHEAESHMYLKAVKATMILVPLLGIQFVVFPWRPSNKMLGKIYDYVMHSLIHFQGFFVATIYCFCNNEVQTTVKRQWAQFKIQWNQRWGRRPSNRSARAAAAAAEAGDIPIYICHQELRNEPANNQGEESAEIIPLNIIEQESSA
The method, boiled down: (§1)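 Affinity comes from self-competition of sCT(8-32) against its iodinated form on intact cells, held at 4 °C overnight. Bound counts were read on a gamma counter, fitted to a 3-parameter logistic curve and converted with Cheng-Prusoff.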

In assay [2] the target is T2, hCTR L368A (Homo sapiens, UniProt P30988, L368A).
T2 construct: c-Myc (N); expressed in transfected cells
T2 sequence (P30988 25-474 L368A): T1 sequence (P30988 25-474 H296A) with A272H, L344A
The method, boiled down:
as §1

Assay [3] deals with T3, hCTR M376A (Homo sapiens, UniProt P30988, M376A).
T3 construct: c-Myc (N); expressed in transfected cells
T3 sequence (P30988 25-474 M376A): T1 sequence (P30988 25-474 H296A) with A272H, M352A
The method, boiled down: as §1

Assay [4] concerns the target T4, hCTR Y284A (Homo sapiens, UniProt P30988, Y284A).
T4 construct: expressed in transfected cells
T4 sequence (P30988 25-474 Y284A): T1 sequence (P30988 25-474 H296A) with Y260A, A272H
In outline:
as §1

Usually Ki stands for a dissociation constant, usually derived from enzyme kinetics or from competition with a known ligand. Low values mean tighter binding, high ones weaker binding.

In the case of “VLGKLSQELHKLQTYPRTNTGSGTP-NH2 [sCT(8-32)]”, the Ki in assay [1] was 269 pM; in assay [2], 209 pM; in assay [3], 132 pM; in assay [4] it was 141 pM.
